Experimental data: a melting point compilation (Tetko et al.; mined from patent text by program, amines drawn as free bases though some values may be those of a salt)

| SMILES | melting point [°C] |
| --- | --- |
| CC(=O)SCC(C)NS(=O)(=O)c1c(C)cc(C)cc1C (configuration not stated) | 123 to 126 |
| CCCOc1ccc([N+](=O)[O-])c(C)c1Cl | 42 to 43 |
| O=Cc1cc2ccsc2s1 | 43 to 45 |
| O=C(NCCCCSc1ccncc1)c1ccccc1O | 83 to 85 |
| Clc1ccc(CNN2C=CN=CC2)cc1 | 86 to 87 |
| NCCNC(=S)Nc1c(Cl)cc([N+](=O)[O-])cc1Cl | 205 |
| O=C(O)c1ccc(S(=O)(=O)CCO)c([N+](=O)[O-])c1 | 190 to 192 |
| O=S1(=O)NCN(C2CC2)c2ccc(Br)cc21 | 178 to 179 |
| CSC(=O)C(=O)c1ccnc(NC=O)c1 | 165 to 167 |
| Clc1ccc(CS[C@H]2CO[C@H](c3ccccc3)OC2)cc1 | 95 to 99 |
| Clc1cc(Nc2ccccc2)c(Cl)nn1 | 137 to 139 |
| Cc1c(C)c(C=O)c2c(c1C)CC(C)(C)O2 | 87 to 88 |
| Cn1ccc(C=C[N+](=O)[O-])c1 | 90 to 92 |
| CCOC(=O)c1c(O)ncnc1CC | 84.5 to 86 |
| OCCN1CCN(c2cc(Cl)nnc2Cl)CC1 | 139 to 141 |
| Nc1ccc(NCCNS(=O)(=O)c2ccccc2)cc1 | 144 |
| C=CCN1CCC[C@H]1C(N)=O | 79 to 81 |

The remaining lines, values ahead:

| melting point [°C] | SMILES |
| --- | --- |
| 131 | COC(=O)C(Cc1cccc(-c2nc(=O)c3ccccc3s2)c1)NC(=O)c1ccccc1 (configuration not stated) |
| 122 | CN(CCCCNC(=O)c1ccc2ccccc2c1)C1CCc2ncsc2C1 (configuration not stated) |
| 115 to 116 | CCOC(=O)/C=C/c1ccc(N2CCC3(CC2)OCCO3)cc1 |
| 232 to 235 | O=C(NC(=O)c1c(F)cccc1F)Nc1ccc(Br)cn1 |
| 114 to 116 | CSCc1cn(C)c2cc(C(C)(C)C)ccc2c1=O |
| 123 to 125 | O=C1CCC(N2Cc3c(OCc4ccc(CN5CCc6cc(F)ccc6C5)cc4)cccc3C2=O)C(=O)N1 (configuration not stated) |
| 194 to 197 | C=CCn1cc(C(=O)O)c(=O)c2cc(F)c(F)c(F)c21 |
| 215 to 216 | CCc1n[nH]c(-c2ccccc2)c1NC(=O)c1ccccc1 |
| 353 to 355 | COc1cc(C=C2SC(N3CCCC3)=NC2=O)cc(-c2ccc(O)c(C34CC5CC(CC(C5)C3)C4)c2)c1O |
| 278 to 280 | O=c1c2c(Cc3ccccc3O)n[nH]c2c2cccnc2n1-c1ccccc1 |
| 152 to 154 | Cc1c(SCCSCCn2c([N+](=O)[O-])cnc2C)ccnc1CNc1cnc2ccccc2c1 |
| 216 to 218 | COc1cccc(-n2c(=O)n(O)c(=O)c3cc(F)c(N4CCCC4)cc32)c1 |
| 117 to 119 | O=C(NOCCO)c1ccc(F)cc1Nc1ccc(I)cc1F |
| 150 | NC1C2CN(C(=O)Nc3ccc(F)cc3)CC12 (configuration not stated) |
| 148 | CC(=O)OC1CSC(Oc2cccc(-c3ncccc3Cl)c2)C(OC(C)=O)C1OC(C)=O (configuration not stated) |
| 135 to 138 | COc1cc(C=C(CC(=O)N2CCOCC2)C(=O)O)cc(OC)c1OC |
| 181 to 183 | CN1CCC(=C2c3ccc(Cl)cc3C(=O)Cc3cccnc32)CC1 |
| 122 to 125 | CC(=O)OCC1CC(OC(C)=O)C(n2c(Br)nc3cc(Cl)c(Cl)cc32)C1 (configuration not stated) |
| 185 to 190 | CC(C)c1ccc(-n2c(CC(=O)O)c(C(=O)O)c3cc(Oc4cccc(C(F)(F)F)c4)ccc32)cc1 |
| 201 to 203 | O=C1NC(=O)C(Cc2ccc(S(=O)(=O)CCc3ccccc3)cc2)S1 (configuration not stated) |
| 81 to 82 | Cc1cc(C)cc(C(=O)c2c(C(C)C)c(=O)[nH]c(=O)n2CC2=CC(CO)C(CO)C2)c1 (configuration not stated) |
| 253 to 254 | Cc1oc2c(C)c(C)c(NC(=O)CC(C)(C)C)c(C)c2c1-c1ccc(C(C)C)cc1 |
| 122 to 124 | Brc1ccccc1Cn1c(-c2ccc3c(c2)OCO3)nc2ccccc21 |
| 208 to 210 | O=C(O)Cc1ccc2cc(O)ccc2c1 |
| 98 to 100 | COc1cc(OC)nc(Cc2ccccc2NC(=O)OC(C)(C)C)n1 |
